Ends that are not written are not given here. Peptide text beside a SMILES is read from it. * marks the point of attachment. Cbz = O=C(OCc1ccccc1)*
Columns and labels:
Assay type in all cases: cell-based, human
NICD [1] = experiment: Western blotting of NICD after MG132 treatment; conditions: AML cells (KG1a and HL60)
Experimental: (§1) Cells were lysed in a lysis buffer containing 0.5 mM EDTA, 20 mM HEPES and 2% SDS. Samples mixed with SDS-gel loading buffer were loaded onto SDS-PAGE gel and transferred onto polyvinylidene fluoride (PVDF) microporous membranes (Millipore). Membranes were blocked with 5% nonfat milk in TBST (20 mM Tris-HCl, 150 mM NaCl, 0.1% Tween-20 with pH 7.5) for 2 hours and incubated with primary antibodies (Table S6, Supporting Information) at 4°C overnight. The membranes were incubated with a secondary antibody (Table S6, Supporting Information) followed by detection in an imaging system (ChampChemi 910, SageCreation) using the ECL reagent solution (SageCreation).

NICD [2] = experiment: Co-immunoprecipitation, NICD-bound ubiquitin; conditions: KG1a- and HL60- shANXA1 or shControl cells; MG132 0 or 6 h; Figure 3C
Experimental: For co-immunoprecipitation (Co-IP) assay, the cells were lysed with NP-40 lysis buffer (Beyotime) containing 1 mM PMSF for 30 min at 4°C. The total protein concentrations were measured using BCA protein assay kit (Solarbio) according to the instructions. The lysates were divided into several tubes and precleared by adding protein A/G-agarose (Santa Cruz) for 30 min at 4°C. The samples were centrifuged to remove the precipitation and incubated with Notch1 antibody or normal rabbit IgG (Table S6, Supporting Information) for 2 hours, and then incubated with protein A/G-agarose overnight. The complexes were washed with NP-40 lysis buffer four times before being eluted in SDS-gel loading buffer and detected by western blotting.

HL60-shANXA1 cells = experiment: Cell counting proliferation assay, HL60-shANXA1; conditions: 24 h, Figure 4E, three independent experiments
Experimental: (§2) For the cell counting assay, transfected cell lines or parental cells were seeded in a cell culture plate at the same density and cultured with RPMI-1640 medium, which sometimes added drugs. The number of cells was counted by a cell counter (Countstar BioTech IC 1000, Countstar) after indicated time.

KG1a-shANXA1 cells = experiment: Cell counting proliferation assay, KG1a-shANXA1; conditions: 24 h, Figure 4E, three independent experiments
Experimental: as §2

p15 = experiment: Western blotting of p15 after RO4929097 treatment; conditions: 24 h, Figure 4D
Experimental: as §1

KG1a cells = experiment: MTT assay, KG1a (FPR blocking or activation); conditions: Figure S14, three independent experiments
Experimental: (§3) For Methylthiazolyldiphenyl-tetrazolium bromide (MTT) assay, cells were seeded in a 96-well plate and incubated with drugs or peptides. At the indicated time point, each well was added with 10 μL MTT solution (5 mg mL^-1, Sigma-Aldrich) and then incubated at 37°C in 5% CO2 for 4 hours. The medium was replaced by DMSO with 150 μL to dissolve the formazan crystals.

HL60 cells = experiment: MTT assay, HL60 (FPR blocking or activation); conditions: Figure S14, three independent experiments
Experimental: as §3

## CC(C)C[C@@H](C=O)NC(=O)[C@H](CC(C)C)NC(=O)[C@H](CC(C)C)NC(=O)OCc1ccccc1 [MG132] (Cbz-Leu-Leu-Leu-aldehyde)
NICD [1]; ANXA1 knockdown group
  NICD expression level: minimally affected the expression level of NICD in the ANXA1 knockdown group
NICD [1]; shControl, 3 h
  NICD degradation: significantly reversed the ANXA1‐induced NICD degradation after 3 h of treatment in the control group
NICD [2]
  ubiquitin bound to NICD: ubiquitin was bound to NICD significantly in the shControl cells after MG132 treatment rather than ANXA1 knockdown cells

## CC(C)(C(=O)NCC(F)(F)C(F)(F)F)C(=O)N[C@@H]1C(=O)Nc2ccccc2-c2ccccc21 [RO4929097]
HL60-shANXA1 cells
  cell proliferation: promoting the proliferation of AML cells
KG1a-shANXA1 cells
  cell proliferation: promoting the proliferation of AML cells
p15; HL60 with ANXA1 knockdown
  p15 expression: inhibited the expression of p15 in KG1a and HL60 cells with ANXA1 knockdown
p15; KG1a with ANXA1 knockdown
  p15 expression: inhibited the expression of p15 in KG1a and HL60 cells with ANXA1 knockdown

## Ac2-26: N-terminal ANXA1 peptide, FPR agonist (Ac-AMVSEFLKQAWFIENEEQEYVQTVK; UniProt P04083 2-26, looked up, fragment)
KG1a cells
  effect on proliferation: neither the FPR antagonist nor the N‐terminal ANXA1 peptide Ac2‐26 affected the proliferation of AML cells
HL60 cells
  effect on proliferation: neither the FPR antagonist nor the N‐terminal ANXA1 peptide Ac2‐26 affected the proliferation of AML cells

Source: article PMC11672316, “Identification of ANXA1 as a Novel Upstream Negative Regulator of Notch1 Function in AML” (Advanced Science, 2024)
